Experimental data taken from patent US7169785B2, “Methods and compositions of novel triazine compounds” (Reddy US Therapeutics, Inc., priority 2001, dated 2007).
Where two headings read alike, the source gives them in different places.

Tests used:
cells = test: Cytotoxicity / lactate dehydrogenase assay and visual observation of cells; format: cell-based; conditions: for Toxicity: toxic or cause cell death
Procedure: Assays for determining the activity of compounds capable of cytotoxic activity include those taught in herein and others that are well known in the art. In general, to determine if there is cytotoxic activity associated with a compound, cells of a particular type, in a growing stage or a quiescient stage, are treated with the compound of interest. Various parameters of cell death or cessation are used to measure the effects of the compound. For example, the amount of nucleic acid or protein synthesis can be measured or visual observation of the state of the cells, such as release from the substrate, can be used to measure the state of the cells.
An appropriate number of cells are plated in four 96-well plates, one plate for “day 0” and three plates for days 1–3. Cells are treated with at least one compound of the present invention in varying concentrations with and without the apoptosis inducer cisplatin (2 μM) (“+cis” or “−cis”). Unteated cells are also assayed with and without cisplatin. After transfection, the plates are incubated at 37° C. overnight.
An appropriate number of cells are plated in four 96-well plates, one plate for “day 0” and three plates for days 1–3. Cells are treated with at least one compound of the present invention in varying concentrations. The negative control cells have normal media conditions, a duplicate set of wells is treated with the composition in which the compound is provided, but there is no added compound and the positive control cells are treated with the apoptosis inducer cisplatin (2 μM). All of the cells are transfected with a vector having a promoter that is responsive to apoptosis conditions. When apoptosis occurs, the promoter is turned on and the lactic dehydrogenase gene is activated and the enzyme protein is made and active. Activity is easily detected with a color change. After transfection, the plates are incubated at 37° C. overnight.
About 8 mls of warmed alpha MEM LDH lysis buffer (2% Triton X100) and about 8 mls of culture media (½ dilution) are combined. Two 96-well v-bottom plates are prepared, one labeled “lysis” and one labeled “supernatant.” To lyse the cells, about 200 μl Alpha MEM lysis buffer (diluted ½) is added to one test plate from which the supernatant has been removed and added to the plate labeled supernatant. After mixing, about 200 μl of lysed cells are transferred to the lysis plate. Both the lysis and supernatant plates are centrifuged at about 1600 rpm for about 10 min. After centrifugation, about 100 μl of both the supernatant or lysate is transferred to corresponding 96-well flat-bottomed plates.
The assay for cytotoxicity uses the Cytotoxicity Detection Kit (LDH) from Roche Diagnostics Corp. (Indianapolis, Ind.). Using the directionts provided, the dye solution is mixed and added each well of the lysate and supernatant plate and incubated for up to 20–25 min at 15–25° C. in the dark.

[1] = test system: Human aortic smooth muscle cells; test: Smooth muscle cell proliferation assay (anti-proliferation assay, perlecan); format: cell-based
Procedure: Human aortic smooth muscle cells (Clonetics) were used. Cells were grown in basal medium containing 5% fetal bovine serum supplemented with growth factors, basic fibroblast growth factor, epidermal growth factor and insulin. […] The cells were then serum starved for 24 h to induce quiescence. Fresh growth medium containing no compound or 10 μM compound was then added and further incubated for 24 h. Cell number was determined by using a cell proliferation assay kit (Celltiter96 AQueous from Promega).

IL-6 [2] = test: AGE (G-HSA)-induced inflammatory response determined by IL-6 ELISA in HAEC; format: cell-based, human; conditions: Homo sapiens
Procedure: Human aortic endothelial cells (HAEC, Clonetics) were cultured according to manufacturer in growth medium (Clonetics): basal medium containing human epidermal growth factor, hydrocortisone, vascular endothelial growth factor, heparin binding growth factor-B, long R3-insulin-like growth factor-1, ascorbic acid, gentamicin/amphotericin and 5% FBS. These cell were allowed to reach at least 90% confluency before subjected to experimental treatments. […] Tumor necrosis factor α was from R&D Systems.
All treatments, compound-added and controls were carried out in serum free media containing 0.2% albumin. Media from all conditions were collected and used for IL-6 ELISA.
(§1) IL-6 ELISA was carried out using human IL-6 DuoSet ELISA development kit as described by manufacturer (R&D Systems). Mouse anti-human Il-6 was used as the capture antibody (2 ug/ml) and biotinylated goat anti-human IL-6 (200 ng/ml) was used as the detection antibody. Culture media were incubated with capture antibody (in 96 well) for 2 h at room temperature. Wells were washed three times with wash buffer (0.05% tween-20 in phosphate buffered saline (PBS) pH 7.4) followed by incubation with detection antibody for 2 h at room temperature. Following three washes wells were incubated with Streptavidin-HRP for 20 min. Color development was read at 450 nm in a Microplate reader.

IL-6 [3] = test: TNF-α-induced IL-6 production determined by IL-6 ELISA in HAEC; format: cell-based, human; conditions: HAEC; for Inhibition of TNF-induced IL6 production: class of % of control IL6 production; for activity at 10 µM: 24 h, Compds tested @ 10 uM, read-out: % IL6 production compare to TNF stimulation of IL6 (100%)
Procedure: Human aortic endothelial cells (HAEC, Clonetics) were cultured according to manufacturer in growth medium (Clonetics): basal medium containing human epidermal growth factor, hydrocortisone, vascular endothelial growth factor, heparin binding growth factor-B, long R3-insulin-like growth factor-1, ascorbic acid, gentamicin/amphotericin and 5% FBS. These cell were allowed to reach at least 90% confluency before subjected to experimental treatments. Glycated human serum albumin (G-HSA) was from US Biologicals. Tumor necrosis factor α was from R&D Systems.
[…] All treatments, compound-added and controls were carried out in serum free media containing 0.2% albumin. Media from all conditions were collected and used for IL-6 ELISA.
as §1

[4] = Homo sapiens, anti-proliferation assay (perlecan), read-out: Activity (note 1)
[5] = Homo sapiens, anti-proliferation assay (perlecan), read-out: Avg IC-50
[6] = Homo sapiens, read-out: Activity (note 1)
[7] = Homo sapiens, read-out: Avg IC-50

COc1ccc(Nc2nc(NC3CC3)nc(N(C)C3CCN(C)CC3)n2)cc1Cl
cell death under Inflammation Data (cells; 10 uM): 15%

CCN1CCCC1CNc1nc(Nc2cccc3cccnc23)nc(NC2CCCCCC2)n1 (stereo not shown) [Compound 5, N^2-cycloheptyl-N^4-[(1-ethyl-2-pyrrolidinyl)methyl]-N^6-(8-quinolinyl)-1,3,5-triazine-2,4,6-triamine]
Toxicity (cells): toxic

CCN1CCCC1CNc1nc(Nc2ccc(Cl)c(Cl)c2)nc(NC2CCCCCC2)n1 (stereo not shown) [Compound 7, N^2-cycloheptyl-N^4-(3,4-dichlorophenyl)-N^6-[(1-ethyl-2-pyrrolidinyl)methyl]-1,3,5-triazine-2,4,6-triamine]
Toxicity (cells): toxic

CCN1CCCC1CNc1nc(Nc2ccc(F)c(F)c2)nc(NC2CCCCCC2)n1 (stereo not shown) [Compound 8, N^2-cycloheptyl-N^4-(3,4-difluorophenyl)-N^6-[(1-ethyl-2-pyrrolidinyl)methyl]-1,3,5-triazine-2,4,6-triamine]
Toxicity (cells): toxic

CCN1CCCC1CNc1nc(Nc2ccc(OC(F)(F)F)cc2)nc(NC2CCCCCC2)n1 (stereo not shown) [Compound 9, N^2-cycloheptyl-N^4-[(1-ethyl-2-pyrrolidinyl)methyl]-N^6-[4-(trifluoromethoxy)phenyl]-1,3,5-triazine-2,4,6-triamine]
Toxicity (cells): toxic

CCN1CCCC1CNc1nc(Nc2ccc(Cl)cc2)nc(NC2CCCCCC2)n1 (stereo not shown) [Compound 12, N^2-(4-chlorophenyl)-N^4-cycloheptyl-N^6-[(1-ethyl-2-pyrrolidinyl)methyl]-1,3,5-triazine-2,4,6-triamine]
Toxicity (cells): toxic

CCN1CCCC1CNc1nc(Nc2ccc(Br)cc2)nc(NC2CCCCCC2)n1 (stereo not shown) [Compound 13, N^2-(4-bromophenyl)-N^4-cycloheptyl-N^6-[(1-ethyl-2-pyrrolidinyl)methyl]-1,3,5-triazine-2,4,6-triamine]
Toxicity (cells): toxic

CCOC(=O)c1ccc(Nc2nc(NCC3CCCN3CC)nc(NC3CCCCCC3)n2)cc1 (stereo not shown) [Compound 14, Ethyl 4-[(4-(cycloheptylamino)-6-{[(1-ethyl-2-pyrrolidinyl)methyl]amino}-1,3,5-triazin-2-yl)-amino]benzoate]
Toxicity (cells): toxic

CCN1CCCC1CNc1nc(Nc2cccc(F)c2)nc(NC2CCCCCC2)n1 (stereo not shown) [Compound 16, N^2-cycloheptyl-N^4-[(1-ethyl-2-pyrrolidinyl)methyl]-N^6-(3-fluorophenyl)-1,3,5-triazine-2,4,6-triamine]
Toxicity (cells): toxic

CCN1CCCC1CNc1nc(Nc2ccccc2Cl)nc(NC2CCCCCC2)n1 (stereo not shown) [Compound 21, N^2-(2-chlorophenyl)-N^4-cycloheptyl-N^6-[(1-ethyl-2-pyrrolidinyl)methyl]-1,3,5-triazine-2,4,6-triamine]
Toxicity (cells): toxic

CCN1CCCC1CNc1nc(Nc2ccccc2Br)nc(NC2CCCCCC2)n1 (stereo not shown) [Compound 22, N^2-(2-bromophenyl)-N^4-cycloheptyl-N^6-[(1-ethyl-2-pyrrolidinyl)methyl]-1,3,5-triazine-2,4,6-triamine]
Toxicity (cells): toxic

CCN1CCCC1CNc1nc(Nc2ccc(Oc3ccccc3)cc2)nc(NC2CCCCCC2)n1 (stereo not shown) [Compound 36, N^2-cycloheptyl-N^4-[(1-ethyl-2-pyrrolidinyl)methyl]-N^6-(4-phenoxyphenyl)-1,3,5-triazine-2,4,6-triamine]
Toxicity (cells): toxic

CCN1CCCC1CNc1nc(NC2CCCCCC2)nc(N(C)c2ccc(OC(F)(F)F)cc2)n1 (stereo not shown) [Compound 47, N^2-cycloheptyl-N^4-[(1-ethyl-2-pyrrolidinyl)methyl]-N^6-methyl-N^6-[4-(trifluoromethoxy)phenyl]-1,3,5-triazine-2,4,6-triamine]
Toxicity (cells): toxic

CCN1CCCC1CNc1nc(Nc2ccc(OC)c(F)c2)nc(NC2CCCCCCC2)n1 (stereo not shown) [Compound 54, N^2-cyclooctyl-N^4-[(1-ethyl-2-pyrrolidinyl)methyl]-N^6-(3-fluoro-4-methoxyphenyl)-1,3,5-triazine-2,4,6-triamine]
Toxicity (cells): toxic

CCN1CCCC1CNc1nc(Nc2ccc(OC)c(F)c2)nc(NC2CCCCCC2)n1 (stereo not shown) [Compound 95, N^2-cycloheptyl-N^4-[(1-ethyl-2-pyrrolidinyl)methyl]-N^6-(3-fluoro-4-methoxyphenyl)-1,3,5-triazine-2,4,6-triamine]
IC50 [1, 4]: > 7 µM
IC50 [1, 5]: 7.3 µM
activity at 10 µM (IL-6 [2]; 24 h, Compds tested @ 10 uM, IL6, read-out: % IL6 production compare to AGE stimulation of IL6 (100%)): 1%
IC50 (IL-6 [2]; IL6, unit inferred, read-out: IC50 (AGE stimulation of IL6)): 6.6 µM
Inhibition of TNF-induced IL6 production (IL-6 [3]): ++++ (between 0 and about 25% of IL6 production compared to cells that did not receive compound (or per cent of control IL6 production))
activity at 10 µM (IL-6 [3]; Homo sapiens, IL6): 5%
IC50 (IL-6 [3]; Homo sapiens, IL6, unit inferred, read-out: IC50 (TNF stimulation of IL6)): 2800 nM

COc1ccc(Nc2nc(Cl)nc(NC3CCCCCC3)n2)cc1F [Compound 127, 6-Chloro-N-cycloheheptyl-N′-(3-fluoro-4-methoxy-phenyl)-[1,3,5]triazine-2,4-diamine]
IC50 [1, 4]: > 7 µM
IC50 [1, 5]: 10 µM
activity at 10 µM (IL-6 [3]; Homo sapiens, IL6): 48%

CCN1CCC[C@H]1CNc1nc(Nc2ccc(OC)c(F)c2)nc(NC2CCCCCC2)n1 [Compound 139, N^2-cycloheptyl-N^4-((S)-1-ethyl-pyrrolidin-2-ylmethyl)-N^6-(3-fluoro-4-methoxyphenyl)-1,3,5-triazine-2,4,6-triamine]
IC50 [1, 6]: 3 to 7 µM
IC50 [1, 7]: 4 to 5 µM
Inhibition of TNF-induced IL6 production (IL-6 [3]): ++++ (between 0 and about 25% of IL6 production compared to cells that did not receive compound (or per cent of control IL6 production))
activity at 10 µM (IL-6 [3]; Homo sapiens, IL6): 16.1%

CCN1CCC[C@@H]1CNc1nc(Nc2ccc(OC)c(F)c2)nc(NC2CCCCCC2)n1 [Compound 140, N^2-cycloheptyl-N^4-((R)-1-ethyl-pyrrolidin-2-ylmethyl)-N^6-(3-fluoro-4-methoxyphenyl)-1,3,5-triazine-2,4,6-triamine]
IC50 [1, 6]: 3 to 7 µM
IC50 [1, 7]: 4 to 5 µM
Inhibition of TNF-induced IL6 production (IL-6 [3]): ++++ (between 0 and about 25% of IL6 production compared to cells that did not receive compound (or per cent of control IL6 production))
activity at 10 µM (IL-6 [3]; Homo sapiens, IL6): 12.6%

CCN(CC)c1ccc(Nc2nc(NCC3CCCN3CC)nc(NC3CCCCCC3)n2)cc1Cl (stereo not shown) [Compound 163]
IC50 ([1]; anti-proliferation assay (perlecan), read-out: Activity (note 1)): > 7 µM
IC50 ([1]; anti-proliferation assay (perlecan), read-out: Avg IC-50): 8 to 10 µM

COc1ccc(Nc2nc(NC3CCCCCC3)nc(N(C)C3CCN(C)CC3)n2)cc1Br [Compound 170]
IC50 [1, 4]: > 7 µM
IC50 [1, 5]: 8 to 9 µM

CN1CCC(N(C)c2nc(Nc3ccc4ccccc4c3)nc(NC3CCCCCC3)n2)CC1 [N^2-cycloheptyl-N^4-methyl-N^4-(1-methyl-piperidin-4-yl)-N^6-naphthalen-2-yl-1,3,5-triazine-2,4,6-triamine]
activity in anti-proliferation assay (Perlecan) ([1]; same activity scale used in Table 3, in words): high activity
